The target of one experiment is NP-1 (Homo sapiens, UniProt O14786). Type of experiment: binding. The arrangement: the NP-1 cDNA used for these experiments would only produce the full-length receptor; expressed in transfected cells; host or cells: COS-1. The protocol:
(§1) When co-expressing VEGFR-2 and NP-1, 5 μg of VEGFR-2 cDNA and 2 μg of NP-1 cDNA are used. When the receptors are expressed in isolation, for VEGFR-2, 5 μg of VEGFR-2 cDNA and 2 μg of mock vector cDNA are used.
(§2) After generation of the liposome/DNA solution, the cells are rinsed one time with 5 ml Optimem I, then replaced with another 5 ml of Optimem I containing the liposome/DNA solution. The cells are incubated for two to four hours at 37° C., 5% CO2, then 5 ml of COS-1 cell growth medium is applied and the transfection is allowed to proceed overnight. The following day, cells are trypsinized (0.2% trypsin, 1 mM EDTA, Gibco-BRL), and cells containing common transfectants are pooled. […] The cells are then used for corresponding VEGFR-2/NP-1 complex formation and peptide blocking studies.
(§3) Cells are plated the day before experimentation at 200,000 cells per well in twelve well tissue culture plates (VWR) in 1 ml of growth medium specific for each cell type. On the day of experimentation, the cells were pre-equilibrated at 4° C. for 30 to 60 minutes in binding buffer (0.2% BSA, Sigma; 25 mM Hepes, Gibco; MEM, Gibco). […] The binding reaction is allowed to reach equilibrium for four hours at 4° C. with gentle agitation.
(§4) Unbound ligand is then removed by quickly washing three times with 5 ml ice cold BSA-free binding buffer (MEM, Gibco, 25 mM Hepes, Gibco). Cells are lysed by the addition of 250 μl of RIPS Buffer (previously described), and the lysed cells are transferred to 12×75 mm test tubes and counted using a gamma counter. Generation of competition curves and IC50 values are performed using the Prism software package (Graphpad Software Inc., San Diego, Calif.).

The subject of another experiment is T1, VEGFR-2/NP-1.
T1 construct: In the COS-1 cells overexpressing the full-length VEGFR-2; the NP-1 cDNA used for these experiments would only produce the full-length receptor; expressed in transfected cells; host or cells: COS-1
Type of experiment: binding, human. The protocol: as §1, §2, §3, §4

Experiment [1] deals with VEGF165 vascular growth response. Kind of experiment: Mouse corneal pocket model. Type of experiment: in vivo. Also on record: key to Score #1 (subjective neovascular response score) / Score #2 (subjective neovascular response score) / Score #3 (subjective neovascular response score): subjective neovascular growth score, 0 to 6 scale. How it is done: A 0.2 μl aliquot of this solution yielded a 4 μg dose. Human recombinant VEGF165 was purchased from R&D Systems (Minneapolis, Minn.), supplied in a lyophilized, carrier free form and reconstituted in the same water as the above peptide. A 0.2 μl aliquot of this solution yielded a 300 ng dose.
Male albino mice (Crl: CD-I (ICR) BR, VAF) from Charles River (Portage, N.C.), 20–24 grams were used. […] Compound adsorbed pellets were fabricated and implanted as described below. The treated eye was imaged on the day of implantation (day 0) and on days 4 and 7 following surgery. The growth response was subjectively graded on a scale from 0 to 6 by three independent graders blinded from the treatment grouping labels using the 3× printed image.
Polyvinyl alcohol (PVA) matrix material (Rippey, El Dorado Hills, Calif.) was cut into 1 cm×3 cm pieces and placed in a vibratome for sectioning on edge to produce 300 μm thick strips. The strips were individually sterilized by exposure to ethylene oxide. A strip was then cut under a dissecting microscope into approximately 300 μm cubes. The desired concentration of test compound or vehicle was adsorbed, sometimes utilizing a micro dessicant chamber. An HP auto sampler micro-syringe (Hamilton, P/N 7000.5) controlled the exact volume of the agent adsorbed onto the sponge. The sponge was then placed on a microscope slide prepared with a coating (20 μl spread over a 0.75 mm×1.5 mm area) of 12% hydron (Sigma, St. Louis, Mo.). The slide was protected in a clean petri dish and placed into a dessicator at 4° C. for a few hours or overnight. The dry, adsorbed sponges were mechanically flattened and overlaid with another aliquot of 12% hydron and again placed into a dessicator to cure the hydron coating. Fabrication of the adsorbed PVA sponge-hydron sandwich (referred to as a pellet) was done no more than 48 hours prior to implantation and the pellets were stored at 4° C. On the day of surgery and just prior to implantation, the pellet was trimmed so that the sponge remained encased by hydron (approximately 400 μm×400 μm×50 μm) and could be carefully removed from the slide.
Mice were anesthetized with 0.05 cc of Ketamine (140 mg/kg) and 0.03 cc Xylazine (17 mg/kg). A surgical plane of anesthesia was maintained by subsequent administration of half doses of the above compounds as needed. The whiskers on the animal's right side were trimmed down to ¼ of an inch. The right eye was bathed in an ophthalmic local anesthetic solution (Ophthaine, 0.5% tetracine hydrochloride) initially and throughout the procedure. The animal was placed on its side and the skin around the eye was gently retracted to expose the lateral and apical aspects of the cornea. The lateral limbic artery bifurcation was positioned horizontally. While stabilizing the eye against the ocular orbit, a vertical incision was made using a micro scalpel into the corneal tissue just lateral to the pupil. Care was taken to prevent accidental perforation of the anterior eye chamber. The incision depth was carefully deepened until a delicate and small lateral stab could be made (on axis with the lateral limbic artery bifurcation) with the micro scalpel into the middle of the corneal stroma. This lateral, intrastromal incision was enlarged by blunt dissection with very fine forceps until a pocket was formed from the vertical incision toward the limbus.
A hydron coated PVA sponge with adsorbed test compound (pellet) was prepared for implantation by carefully excising and removing it from the microscope slide. The pellet was introduced gently into the corneal pocket and advanced to within 1–2 mm of the limbus. The edges of the vertical corneal incision were approximated to encourage rapid healing. The imaging procedure (described below) was used to document the native limbic vascular architecture at the time of implantation. Post surgical recovery of the animal consisted of triple antibiotic ophthalmic ointment to prevent corneal drying, abrasion and infection. […]

Ends that are not written are not given here. Peptide text beside a SMILES is read from it.

NP-1, sequence (O14786 22-923): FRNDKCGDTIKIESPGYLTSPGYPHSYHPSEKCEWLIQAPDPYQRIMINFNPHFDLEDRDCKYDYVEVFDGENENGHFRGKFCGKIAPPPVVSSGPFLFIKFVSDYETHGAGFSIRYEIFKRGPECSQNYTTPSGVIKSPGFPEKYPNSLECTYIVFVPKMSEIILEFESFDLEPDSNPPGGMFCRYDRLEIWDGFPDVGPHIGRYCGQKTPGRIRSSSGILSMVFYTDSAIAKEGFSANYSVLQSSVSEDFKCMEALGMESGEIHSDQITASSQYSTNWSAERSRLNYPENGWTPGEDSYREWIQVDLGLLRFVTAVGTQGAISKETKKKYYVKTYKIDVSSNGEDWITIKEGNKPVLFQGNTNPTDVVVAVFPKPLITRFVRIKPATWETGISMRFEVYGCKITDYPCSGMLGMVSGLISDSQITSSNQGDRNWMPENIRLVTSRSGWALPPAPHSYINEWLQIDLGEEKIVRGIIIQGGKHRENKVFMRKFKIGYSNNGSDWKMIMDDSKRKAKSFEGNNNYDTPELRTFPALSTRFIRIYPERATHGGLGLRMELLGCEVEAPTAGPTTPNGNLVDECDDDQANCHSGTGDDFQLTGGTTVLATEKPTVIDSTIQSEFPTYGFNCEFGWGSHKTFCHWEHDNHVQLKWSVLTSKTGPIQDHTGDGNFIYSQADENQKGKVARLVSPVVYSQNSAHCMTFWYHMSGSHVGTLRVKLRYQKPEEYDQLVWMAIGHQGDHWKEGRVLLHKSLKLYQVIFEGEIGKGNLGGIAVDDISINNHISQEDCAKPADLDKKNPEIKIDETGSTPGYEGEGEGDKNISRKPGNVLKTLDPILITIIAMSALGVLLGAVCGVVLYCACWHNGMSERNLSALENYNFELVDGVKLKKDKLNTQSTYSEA

With “H-AGRGKRRREKQRPSDKPRR-OH [Peptide P6V8-3NCSA1]”, the “Relative Affinity to Lead Peptide (RALP), NP-1” value at NP-1 is given as 0.99.

Consider “H-KGRGKRAAEAQAPSDAPAR-OH [P6V8-3NCSA7,8, 10, 12, 16, 18]”, for which the “Relative Affinity to Lead Peptide (RALP), VEGFR-2/NP-1” value with VEGFR-2/NP-1 is 27.540. Moreover, at NP-1, the “Relative Affinity to Lead Peptide (RALP), NP-1” value came out at 72.44.

For the compound `C[C@@H]1NC(=O)[C@@H](N)CSSC[C@@H](C(=O)N[C@@H](CCCNC(=N)N)C(=O)N[C@@H](CCC(=O)O)C(=O)N[C@@H](CCCCN)C(=O)N[C@@H](CCC(N)=O)C(=O)N[C@@H](CCCNC(=N)N)C(=O)N2CCC[C@H]2C(=O)N[C@@H](CO)C(=O)N[C@@H](CC(=O)O)C(=O)N[C@@H](CCCCN)C(=O)N2CCC[C@H]2C(=O)N[C@@H](CCCNC(=N)N)C(=O)N[C@@H](CCCNC(=N)N)C(=O)O)NC(=O)[C@H](CCCNC(=N)N)NC(=O)[C@H](CCCCN)NC(=O)CNC(=O)[C@H](CCCNC(=N)N)NC(=O)CNC1=O` [P6V8-3NCS1-7CCA1] (HELM PEPTIDE1{C.A.G.R.G.K.R.C.R.E.K.Q.R.P.S.D.K.P.R.R}$PEPTIDE1,PEPTIDE1,1:R3-8:R3$$$V2.0), the “Relative Affinity to Lead (RALP), VEGFR-2/NP-1” value in the experiment with VEGFR-2/NP-1 was determined as 1.97. In addition, the “Relative Affinity to Lead (RALP), NP-1” value at NP-1 came out at 14.35.

Turning to H-RRPKGRGKRRREKQRPSDAAAR-OH [AS-5], the “Relative Affinity to Lead Peptide (RALP), VEGFR-2/NP-1” value with VEGFR-2/NP-1 came out at 0.71. For the same compound, the “Relative Affinity to Lead Peptide (RALP), NP-1” value at NP-1 was 1.6.

Turning to “H-AGRGKARREKQRPSDKPRR-OH [P6V8-3NCSA1A6]”, the “Relative Affinity to Lead Peptide (RALP), VEGFR-2/NP-1” value with VEGFR-2/NP-1 was determined as 0.93. Also, the “Relative Affinity to Lead Peptide (RALP), NP-1” value at NP-1 was 2.30.

With “RRPKGRGKRRREKQRPCDKPRR [Peptide P6V8, RRP KGR GKR RRE KQR P CDKPRR]”, the “score of eye images by all graders” value in experiment [1] (Day 7, P6V8 alone 4 μg, 0 = no change in limbic vasculature from Day 0) worked out at 0. Further, the “vascular growth response to 300 ng of VEGF165 in the presence of peptide” value in experiment [1] (P6V8 4 μg, mouse corneal micro pocket) is “attenuated”. The “Score #1 (subjective neovascular response score)” value in experiment [1] (grader 1, per animal, scale 0 to 6, pellet P6V8 4 μg and/or VEGF165 300 ng) stood at 0. In experiment [1] (grader 2, per animal, scale 0 to 6, pellet P6V8 4 μg and/or VEGF165 300 ng), the “Score #2 (subjective neovascular response score)” value is listed as 0. Moreover, in experiment [1] (grader 3, per animal, scale 0 to 6, pellet P6V8 4 μg and/or VEGF165 300 ng), the “Score #3 (subjective neovascular response score)” value is recorded as 0.

For the compound “H-KGRGKRAAEAQRPSDKPRR-OH [P6V8-3NCSA7,8, 10]”, the “Relative Affinity to Lead Peptide (RALP), VEGFR-2/NP-1” value in the experiment with VEGFR-2/NP-1 turned out to be 3.27. For the same compound, the “Relative Affinity to Lead Peptide (RALP), NP-1” value at NP-1 is 14.25.

Turning to “H-RRPAAAGKRRREKQRPSDKPRR-OH [AS-1, RRP AAA GKR RRE KQR PSD KPR R]”, the “Relative Affinity to Lead Peptide (RALP), VEGFR-2/NP-1” value in the experiment on VEGFR-2/NP-1 is recorded as 1. For the same compound, at NP-1, the “Relative Affinity to Lead Peptide (RALP), NP-1” value turned out to be 8.

As to “H-KGRGKARREKQRPSDKPRR-OH [Peptide P6V8-3NCSA6]”, in the experiment with VEGFR-2/NP-1, the “Relative Affinity to Lead Peptide (RALP), VEGFR-2/NP-1” value is 5.10. Also, at NP-1, the “Relative Affinity to Lead Peptide (RALP), NP-1” value is reported as 2.16.

In the case of “H-KGAGKARREKQRPSDKPRR-OH [P6V8-3NCSA3A6]”, the “Relative Affinity to Lead Peptide (RALP), VEGFR-2/NP-1” value with VEGFR-2/NP-1 was 8.20. Also, the “Relative Affinity to Lead Peptide (RALP), NP-1” value on NP-1 worked out at 48.8.

`C[C@@H]1NC(=O)CNC(=O)[C@H](CCCNC(=N)N)NC(=O)CNC(=O)[C@H](CCCCN)NC(=O)[C@@H](N)CSSC[C@@H](C(=O)N[C@@H](CCCNC(=N)N)C(=O)N[C@@H](CCC(=O)O)C(=O)N[C@@H](CCCCN)C(=O)N[C@@H](CCC(N)=O)C(=O)N[C@@H](CCCNC(=N)N)C(=O)N2CCC[C@H]2C(=O)N[C@@H](CO)C(=O)N[C@@H](CC(=O)O)C(=O)N[C@@H](CCCCN)C(=O)N2CCC[C@H]2C(=O)N[C@@H](CCCNC(=N)N)C(=O)N[C@@H](CCCNC(=N)N)C(=O)O)NC(=O)[C@H](CCCNC(=N)N)NC1=O` [P6V8-3NCS1-7CCA5] (HELM PEPTIDE1{C.K.G.R.G.A.R.C.R.E.K.Q.R.P.S.D.K.P.R.R}$PEPTIDE1,PEPTIDE1,1:R3-8:R3$$$V2.0): the “Relative Affinity to Lead (RALP), VEGFR-2/NP-1” value in the experiment with VEGFR-2/NP-1 was 1.87. Further, the “Relative Affinity to Lead (RALP), NP-1” value on NP-1 came to 1.64.

As to “H-AGRGARRREKQRPSDKPRR-OH [P6V8-3NCSA1A5]”, the “Relative Affinity to Lead Peptide (RALP), VEGFR-2/NP-1” value in the experiment with VEGFR-2/NP-1 worked out at 0.71.

On to “H-KGRGKRAAEKQAPSDKPRR-OH [P6V8-3NCSA7,8, 12]”, for which, at NP-1, the “Relative Affinity to Lead Peptide (RALP), NP-1” value is recorded as 1.91.

Consider “H-KGRGARRREKQRPSDKPRR-OH [Peptide P6V8-3NCSA5]”, for which, in the experiment with VEGFR-2/NP-1, the “Relative Affinity to Lead Peptide (RALP), VEGFR-2/NP-1” value worked out at 1.45.

For “H-KGAGKRRREKQRPSDKPRR-OH [Peptide P6V8-3NCSA3]”, in the experiment on VEGFR-2/NP-1, the “Relative Affinity to Lead Peptide (RALP), VEGFR-2/NP-1” value is 0.23. In addition, on NP-1, the “Relative Affinity to Lead Peptide (RALP), NP-1” value was determined as 8.8.

`C[C@@H]1NC(=O)CNC(=O)[C@H](CCCNC(=N)N)NC(=O)CNC(=O)[C@H](C)NC(=O)[C@@H](N)CSSC[C@@H](C(=O)N[C@@H](CCCNC(=N)N)C(=O)N[C@@H](CCC(=O)O)C(=O)N[C@@H](CCCCN)C(=O)N[C@@H](CCC(N)=O)C(=O)N[C@@H](CCCNC(=N)N)C(=O)N2CCC[C@H]2C(=O)N[C@@H](CO)C(=O)N[C@@H](CC(=O)O)C(=O)N[C@@H](CCCCN)C(=O)N2CCC[C@H]2C(=O)N[C@@H](CCCNC(=N)N)C(=O)N[C@@H](CCCNC(=N)N)C(=O)O)NC(=O)[C@H](CCCNC(=N)N)NC1=O` [P6V8-3NCS1-7CCA1A5] (HELM PEPTIDE1{C.A.G.R.G.A.R.C.R.E.K.Q.R.P.S.D.K.P.R.R}$PEPTIDE1,PEPTIDE1,1:R3-8:R3$$$V2.0): the “Relative Affinity to Lead (RALP), VEGFR-2/NP-1” value in the experiment with VEGFR-2/NP-1 turned out to be 17.33. Moreover, the “Relative Affinity to Lead (RALP), NP-1” value at NP-1 was 30.76.

As to “H-AGRGARAAEAQRPSDKPRR-OH [P6V8-3NCSA1,5,7,8, 10]”, the “Relative Affinity to Lead Peptide (RALP), VEGFR-2/NP-1” value in the experiment on VEGFR-2/NP-1 was 5.22. Also, at NP-1, the “Relative Affinity to Lead Peptide (RALP), NP-1” value is 67.76.
